Results published in patent publication US20170014455A1, “INDUCING BROWN FAT FATE AND FUNCTION” (The J. David Gladstone Instiutes, a testamentary trust …, priority 2014, published 2017).

How the values were obtained:
[1] = tested on: primary brown pre-adipocytes (pre-BAT); assay: Differentiation of primary brown pre-adipocytes; type: cell-based
Experimental: (§1) C2C12, 3T3-L1 and C3H10T1/2 cells were purchased from ATCC. Primary brown pre-adipocytes were kindly donated by Prof. C. Ronald Kahn (Harvard University). Primary myoblasts were purified from mouse limb muscles and cultured in growth medium (F10+20% FBS+5 ng/ml bFGF) in Matrigel-coated plates (Xiao et al., Cell Res 21, 350-364 (2011)). Adipocyte differentiation was induced by treating cells for 2 days in basal adipogenesis medium (AM) (850 nM insulin, 1 nM T3, 0.5 mM isobuylmethylxanthine, […] indomethacin, 5 μM dexamethasone in10% FBS DMEM). Then cells were switched to 10% FBS DMEM containing 850 nM insulin and 1 nM T3 for another 4-6 days. To stimulate thermogenesis, cells were stimulated with 10 μM forskolin for 4 h.
(§2) Total RNA from cell lines were purified using Qiagen kit, and total RNA from mouse tissues was extracted using Trizol. Complementary DNA was prepared from total RNA with the iScript DNA synthesis kit (Bio-Rad). Quantitative PCR reactions contained SYBR-Green fluorescent dye (ABI). RT-PCR was also used to confirm some gene expression. Relative mRNA expression was determined by the ΔΔ-Ct method with GAPDH as an endogenous control.
Primary brown pre-adipocytes cells efficiently differentiated into brown adipose tissue in the conventional adipogenesis medium.

[2] = tested on: C3H10T1/2 mesenchymal cells; assay: Adipogenic induction and gene expression in C3H10T1/2 mesenchymal cells; type: cell-based
Experimental: (§3) C2C12, 3T3-L1 and C3H10T1/2 cells were purchased from ATCC. Primary brown pre-adipocytes were kindly donated by Prof. C. Ronald Kahn (Harvard University). […] Then cells were switched to 10% FBS DMEM containing 850 nM insulin and 1 nM T3 for another 4-6 days. To stimulate thermogenesis, cells were stimulated with 10 μM forskolin for 4 h.
as §2

[3] = tested on: 3T3-L1 white pre-adipocytes; assay: Differentiation and gene expression of 3T3-L1 white pre-adipocytes under brown adipogenic conditions; type: cell-based
Experimental: as §3, §2

[4] = tested on: C2C12 myoblast cell line; assay: Adipogenesis of C2C12 myoblasts, Oil-red-O staining of lipid droplets (high-throughput phenotypic screen and follow-up); type: cell-based, mouse
Experimental: as §1
To identify small molecules that mimic the BAT-inducing activity of Prdm16, a high-throughput phenotypic screen of 20,000 compounds was performed using the C2C12 myoblast cell line with lipid droplets stained by Oil-red-O (ORO) as readout (FIG. 1A). […] In the basal adipogenesis medium (AM), no adipocyte-like cells could be induced from C2C12 myoblasts.

[5] = tested on: C3H10T1/2 cells; assay: Ciclopirox and IOX2 gene expression in C3H10T1/2 cells; type: cell-based; details: 0.1 μM to 50 μM
Experimental: as §1, §2
C3H10T1/2 cells were incubated in concentrations of ciclopirox and IOX2 that varied from 0.1 μM to 50 μM. Gene expression levels of genes correlated with the brown adipose tissue phenotype was measured using procedures described in Example 1.

[6] = tested on: C2C12 cells; details: 2-day treatment
Experimental: Mouse genome-wide gene expression analyses were performed using Affymetrix Mouse Gene 1.0 ST Array. […] Microarray analyses were performed in duplicate from independent biologic samples, according to the standard Affymetrix Genechip protocol. Data were normalized and analyzed using Affymetrix Expression Console and Transcriptome Analysis Console (TAC) software. […] The differential expression gene list was further analyzed in DAVID GO functional annotation and GO-Elite (Zambon et al., Bioinformatics 28: 2209-2210 (2012)).

[7] = Oral bexarotene in chow-fed mice: body weight, indirect calorimetry, fat depots, tissue qPCR; type: in vivo, C57BL/6N mice; details: 50 mg/kg/day oral, 4 weeks
Experimental: as §2
C57BL/6N mice were fed ad libitum a standard laboratory chow diet (LabDiet 5053, LabDiet, Purina Mills, Richmond, Ind.). Animals were housed under 12-hour light-dark cycles with controlled temperature (23±1° C.). […] All animal experiments were conducted in accordance with the institutional Guidelines for humane treatment of laboratory animals of HKU Animal Care and Use Committee.
Whole-body oxygen consumption was measured using an open circuit indirect calorimetry system with automatic temperature and light controls (Columbus Instruments). Mice had access ad libitum to chow and water in respiration chambers, and data were recorded for a 48 h period […] acclimatized for 24 h.

[8] = tested on: primary myoblasts; assay: Bexarotene with PRDM16 overexpression in primary myoblasts; type: cell-based, mouse
Experimental: as §1, §2

[9] = tested on: C2C12 cells; assay: Real-time PCR gene expression in C2C12 cells during adipogenesis; type: cell-based, mouse
Experimental: as §1, §2

[10] = Bexarotene in high fat diet mice: body weight, fat weights, GTT, ITT; type: in vivo, C57BL/6J mice; details: 50 mg/kg daily i.p., high fat diet 4 weeks
Experimental: Male mice (8-week-old, C57BL/6J) were housed in metabolism cages and maintained on a 12 h light-dark cycle at 23° C. The mice were fed a high fat diet (HFD) (21.9 kJ/g, 60% of energy as fat, 20% of energy as protein, 20% of energy as carbohydrate; D12492; Research Diet, New Brunswick, N.J., USA) for four weeks.
Glucose and insulin tolerance tests were performed on the mice at the end of the four week dosing period. Mice were fasted overnight and injected intraperitoneally (i.p.) with 20% glucose at a dose of 2 g/kg body weight for glucose tolerance tests (GTTs). For insulin tolerance tests (ITTs), mice were starved for 6 h and i.p. injected with 0.5 U/kg body weight of recombinant human insulin (Eli Lilly). Blood glucose was monitored from the tail vein blood using a glucometer (ACCU-CHEK Advantage; Roche Diagnostics China, Shanghai, China) at various time points. Mouse body weight, subcutaneous (inguinal fat; SubQ fat), and epididymal adipose tissue weight (epidi weight) were also determined at the end of the 4 week test.

[11] = tested on: primary mouse embryonic fibroblast (MEF) cells; assay: Adipogenesis and gene expression in primary mouse embryonic fibroblasts; type: cell-based
[12] = tested on: C2C12 cells over-expressing RXRα, RXRβ or RXRγ; assay: Bexarotene in C2C12 cells overexpressing RXRα, RXRβ or RXRγ; type: cell-based, mouse
Experimental: as §1
Mouse retinoid X receptor-alpha (RXRα) and retinoid X receptor-gamma (RXRγ) plasmids were from Dr. Ronald Evans (Salk Institute) and mouse RXRβ plasmid was purchased from Origene. These three RXR fragments were subcloned into pMXs vectors to generate a retrovirus construct (Yamanaka lab, Gladstone Institutes). Non-target shRNA(shNT), shRXRα, shRXRβ, and shRXRγ lentivirus constructs were purchased from Sigma-Aldrich. Retrovirus and lentivirus constructs were packaged in Plat E and 293T cells, respectively.
as §2
To further characterize the role of retinoid receptors, the RXRα, RXRβ and RXRγ subtype receptors were overexpressed in C2C12 cells.

[13] = brown adipogenic differentiation conditions

CN1c2ccc([N+](=O)[O-])cc2N=C(c2ccc(C(=O)O)cc2)c2cc3c(cc21)C(C)(C)CCC3(C)C [HX531]
Bex-induced BAT differentiation ([1]; with bexarotene): reduced
white adipose tissue adipogenesis [2]: promoted
white adipose tissue adipogenesis [3]: promoted
bexarotene-induced brown adipogenic induction ([4]; with bexarotene, first 2 days, 10 μM each): completely abolished

O=C(O)CNC(=O)c1c(O)c2ccccc2n(Cc2ccccc2)c1=O [IOX2]
expression of PPARγ and several brown adipocyte-specific genes [5]: significantly induced
response of BAT-like adipocytes to forskolin (Ucp1, Pgc1α) [5]: readily responded to forskolin

C=C(c1ccc(C(=O)O)cc1)c1cc2c(cc1C)C(C)(C)CCC2(C)C [bexarotene]
expression of browning genes Fgf21, Pgc1α, Ppargc1a, Acsl1, Tbx15, Ptgs2, G0S2 [6]: increased expression
white adipogenesis-associated genes Bmp4 and Egr2 [6]: repressed
Ucp1 expression in subcutaneous white adipose tissue (subWAT) ([7]; qPCR): significantly induced although to a lesser extent
thermogenic gene expression (Ucp1, Pgc1α) in brown adipose tissue ([7]; qPCR): marked augmentation
interscapular brown adipose tissue mass (absolute and portion of body weight) ([7]; vs control): increased significantly
lipid droplets in brown adipose tissue (H&E) ([7]; vs control): similar, if not smaller
white adipose tissue depots (subWAT, epiWAT) mass ([7]; vs control): no statistically significant change
body weight gain ([7]; vs saline): smaller gain in body weight
carbon dioxide release (VCO2) ([7]; vs saline): released more CO2
oxygen consumption (VO2) ([7]; vs saline): consumed more oxygen
physical activity ([7]; vs saline): without changes in physical activity
total energy expenditure (heat generation) ([7]; vs saline): significantly more total energy was expended
potentiation of Prdm16 overexpression-induced Ucp1 expression ([8]; Prdm16 overexpression): more than fourfold
lipid droplet size ([8]; added to PRDM16 overexpression vs PRDM16 overexpression alone): much smaller lipid droplets
levels of PPARγ, Fabp4, CD36 and RXR/PPARγ targets Pex11a, Angpt14, HK2 ([9]; Day 2, qPCR confirmation): significantly increased
expression of PPARγ, Prdm16 and Pgc1α ([9]; adipogenesis medium, qPCR Day 6): significantly induced
response of induced BAT-like adipocytes to forskolin (Ucp1, Pgc1α) ([9]; forskolin stimulation 4 h): readily responded to forskolin
glucose tolerance test [10]: improved glucose homeostasis
insulin tolerance test [10]: responded to insulin more sensitively
body weight ([10]; vs control): lower body weight
epididymal adipose tissue ([10]; vs control): less epididymal adipose tissue
subcutaneous (inguinal) fat ([10]; vs control): less subcutaneous fat
expression of PPARγ and BAT-associated genes incl. Prdm16 and Pgc1α [1]: higher levels of expression
induction of Ucp1 and Pgc1α expression in response to forskolin ([1]; differentiated BAT adipocytes): potentiated
brown phenotype / browning [11]: induced a strong brown phenotype
white adipogenic phenotype [11]: apparently suppressing
Ucp1 expression ([11]; even without forskolin stimulation): induced in a dose-dependent manner
induction of Ucp1 and Pgc1α expression compared with cPGI2 [2]: much greater than that of the COX-2 agonist cPGI2
brown phenotype (thermogenic gene expression to forskolin stimulation) ([2]; 2 days at the beginning of adipogenic induction): induced the brown phenotype
small multilocular lipid droplets and BAT-specific genes Ucp1, Prdm16, PPARα, Pgc1α, Cox7a1, Cox8b ([2]; RXRα or RXRγ overexpression, adipogenic induction): induced
response to forskolin stimulation [3]: more robust response
BAT features (small lipid droplets, Ucp1 expression) [3, 13]: induced
white adipose tissue differentiation and PPARγ expression [3, 13]: significantly suppressed
cells reprogrammed to brown adipose-like cells with multilocular lipid droplets ([12]; RXRα or RXRγ overexpression): nearly all cells
Prdm16 and Ucp1 expression at early stage ([12]; RXRα-overexpressed C2C12 cells, before typical adipocytes appeared): induced Prdm16 expression and even more dramatically induced Ucp1 expression
myogenic genes Myf5, MyoD, MyoG and MHCβ ([12]; bexarotene/RXR reprogrammed cells): dramatically attenuated
Ucp1 expression response to forskolin ([12]; bexarotene/RXR-induced BAT-like cells): robustly responded
adipogenic reprogramming ([4]; added for 2 days in basal adipogenesis medium): dramatically initiated adipogenic reprogramming in C2C12 cells in a dose-dependent manner
appearance of lipid droplets (Oil-red-O) ([4]; high-throughput screen of 20,000 compounds): led to the appearance of lipid droplets

Cc1cc(C2CCCCC2)n(O)c(=O)c1 [ciclopirox]
expression of PPARγ and several brown adipocyte-specific genes [5]: significantly induced
response of BAT-like adipocytes to forskolin (Ucp1, Pgc1α) [5]: readily responded to forskolin
